Article PMC10950897, “VCF1 is a p97/VCP cofactor promoting recognition of ubiquitylated p97-UFD1-NPL4 substrates” (Nature Communications, 2024)
“Also recorded” adds a separate entry of the source.

Legend:
p97 ATPase = assay: ATPase assay; format: biochemical, human; conditions: p97 25 nM; for relative ATPase activity: ATP 375 μM
Method: For ATPase assays, 1 ml of 5x assay buffer (250 mM Tris, pH 7.4; 100 mM MgCl2; 5 mM EDTA) was mixed with 3 ml water, 5 μl 0.5 M TCEP and 5 μl 10% Triton X. To 40 ul of this assay buffer, recombinant proteins were added, mixed and incubated for 30 min. Final protein concentrations were as follows: p97 (25 nM), VCF1 (range of 0, 0.025, 1, 10 and 25 nM). The reactions were started by adding 10 μl ATP (final concentration of 375 μM) to the 40 μl reactions in a 96 well plate. After 35 min at room temperature, reactions were stopped by adding 50 μl BIOMOL Green reagent (Enzo Life Sciences). Absorbance at 635 nm was measured after 4 min and the relative ATPase activity calculated. Reactions were performed in duplicates and repeated three times.

[1] = system: p97-UFD1-NPL4 binding to K48-Ub2-7; assay: FLAG IP: p97-UFD1-NPL4 binding to K48-linked ubiquitin chains, purified proteins; format: biochemical, human; conditions: purified proteins
Method: (§1) All in vitro binding experiments were performed in EBC or RIPA buffer as indicated. Recombinant Biotin-tagged K48-linked poly-ubiquitin chains (2−7) and K48-linked poly-ubiquitin chains (2−16) were purchased from R&D Systems and Enzo Life Science, respectively. Recombinant proteins were incubated with Strep-Tactin Sepharose (IBA), Glutathione agarose (Gold Biotechnology) or […] Fab-trap agarose (ChromoTek) overnight on an end-over-end rotator at 4 °C, washed six times with EBC or RIPA buffer, and resuspended in 2×Laemmli sample buffer. For p97, VCF1 or p47 pulldowns, antibodies (0.5 µg/sample) were coupled to agarose beads, incubated with recombinant proteins or cell lysates and washed with the indicated buffer. To assess p97-UFD1-NPL4 binding to ubiquitylated proteins in total cell extracts, U2OS cells were lysed in EBC buffer supplemented with protease and phosphatase inhibitors, sonicated and incubated on ice for 10 min. Lysates were cleared by centrifugation for 10 min at 16,100 × g. Cell lysate (40 µg) was added to recombinant proteins in EBC buffer, incubated overnight on the rotator with […] Fab-trap agarose (ChromoTek), and beads were washed six times.

ubiquitin (K48-Ub2-16) = assay: StrepTactin pulldown of VCF1 with K48-linked ubiquitin chains; ubiquitin interaction alone or in complex with p97; format: binding
Method: as §1

p97-UFD1-NPL4 = assay: Analytical gel filtration; format: binding, human; conditions: equimolar p97, UFD1-NPL4, VCF1 (5 µM), pH 7.4
Method: For analytical gel filtration, p97 alone (5 µM hexamer), or p97 (5 µM hexamer) with UFD1-NPL4 (5 µM) and VCF1 (5 µM) were mixed in a total volume of 25 µl in SEC buffer (50 mM HEPES, pH 7.4; 150 mM NaCl). Samples were separated by size exclusion chromatography on a Superose 6 3.2/300 column (Cytiva) equilibrated in SEC buffer using an ÄKTA Purifier 10 FPLC system (GE Healthcare). After the column dead volume (0.35 column volumes), fractions were collected (120 µl) and analyzed by immunoblotting.

[2] = system: p97 with UFD1-NPL4, p47 or FAF1; assay: In vitro binding with p97 cofactors (GST, StrepTactin, p47, p97 or FLAG pulldown); design: species or system human
Method: as §1

[3] = system: p97 with poly-ubiquitylated mEos3.2; assay: In vitro p97 unfoldase assay (mEos3.2); format: biochemical, human; conditions: p97 100 nM hexamer, UFD1-NPL4 500 nM, VCF1 300 nM, 37 °C
Method: Di-ubiquitin-fused mEos3.2 fluorescent protein (diUb-mEos3.2) and ubiquitylation cascade proteins mUbe1, gpc78-ubc7 fusion and ubiquitin were recombinantly expressed in E. coli and purified as described previously. diUb-mEos3.2 substrate was enzymatically polyubiquitylated as described previously. […] The unfolding activity of p97 was monitored in vitro by measuring the decrease in diUb^n-mEos3.2 fluorescence. For this, diUb^n-mEos3.2 (35 nM), p97 (100 nM hexamer), UFD1-NPL4 (500 nM) and VCF1 (300 nM) were mixed as indicated in Eos assay buffer (50 mM HEPES, pH 7.5; 150 mM KCl; 2 mM MgCl2; 5% glycerol; 1 mM DTT) and pre-warmed to 37 °C for 5 min before ATP (2 mM) was added to start the reaction. Unfolding of red mEos3.2 fluorescence was measured every 15 s in a Varian Cary Eclipse spectrofluorometer (excitation: 500 nm; emission: 520 nm) and normalized to the first value after addition of ATP.

[4] = system: p97-UFD1-NPL4 binding to ubiquitylated proteins; assay: FLAG IP: p97-UFD1-NPL4 binding to ubiquitylated proteins in U2OS cell extracts; format: biochemical, human; conditions: U2OS total cell extracts, EBC buffer
Method: as §1

p97 hexamer (His6-p97) = assay: Mass photometry; format: binding, human; conditions: saturating VCF1, absence of other cofactors
Method: Mass photometry experiments were performed on a Refeyn One (Refeyn Ltd) mass photometer at room temperature. Measurements were run in triplicates, diluting 3 μl of protein sample (20 nM) in 15 μl PBS buffer loaded on a gasket (Grace Bio-Labs reusable CultureWell gaskets (GBL103250, Merck)) mounted on a glass microscope coverslip (0107222, Marienfeld). Experiments were performed with His6-p97 alone and in presence of saturating concentrations of full-length Strep-HA-VCF1. The molecular weight was obtained by contrast comparison with known molecular weight mass standard calibrants (NativeMark Unstained Protein Standard (LC0725), Thermo Fischer Scientific) measured on the same buffer and on the same day. Movies were recorded using AcquireMP (Refeyn Ltd, version 2022 R1), with a medium field of view and exposure time of 0.95 ms for the acquisition camera settings. A total of 6000 frames were recorded over a duration of one minute. Movies were processed and analysed with the DiscoverMP software (Refeyn Ltd, version 2022 R1) provided by the instrument manufacturer.

In the case of “VCF1: human FAM104A isoform 1, 186 amino acids (UniProt Q969W3); recombinant Strep-HA-tagged”, the “relative ATPase activity” value (p97 ATPase; 0.025 nM, replicate 1) is reported as 0.985, the “relative ATPase activity” value (p97 ATPase; 0.025 nM, replicate 2) is reported as 0.875 and the “relative ATPase activity” value (p97 ATPase; 0.025 nM, replicate 3) is reported as 1.031. For the same substance, the “relative ATPase activity” value (p97 ATPase; 1 nM, replicate 1) was 1.071, the “relative ATPase activity” value (p97 ATPase; 1 nM, replicate 2) was 0.934 and the “relative ATPase activity” value (p97 ATPase; 1 nM, replicate 3) was 0.99. For the same substance, the “relative ATPase activity” value (p97 ATPase; 10 nM, replicate 1) was 1.095, the “relative ATPase activity” value (p97 ATPase; 10 nM, replicate 2) was 1.007 and the “relative ATPase activity” value (p97 ATPase; 10 nM, replicate 3) was 1.066. For the same substance, the “effect on p97 ATPase activity (in words)” value (p97 ATPase) was “had no impact on the ATPase activity of p97 in vitro”, the “effect on UFD1-NPL4 association with p97” value [1] was “no discernible impact on UFD1-NPL4 association with p97” and the “effect on p97-UFD1-NPL4 binding to K48 ubiquitin chains” value ([1]; FLAG IP) was “strong stimulatory impact on p97-UFD1-NPL4 binding to K48-linked poly-ubiquitin chains in vitro”. For the same substance, the interaction with ubiquitin (ubiquitin (K48-Ub2-16)) was “neither in isolation nor in complex with p97 did VCF1 display detectable interaction with ubiquitin”, the “comigration in size-exclusion chromatography” value (p97-UFD1-NPL4) was “comigration of the p97-VCF1-UFD1-NPL4 complex” and the “co-purification of UFD1-NPL4 with immobilized VCF1” value ([2]; StrepTactin pulldown) was “dependent on the presence of p97 and the p97-binding proficiency of VCF1”. For the same substance, the “VCF1 in p47 IP” value ([2]; VCF1:p47 ratio approx. 1:3) was “little if any VCF1 is detectable in the p47 IP”, the “VCF1 in p47 IP” value ([2]; VCF1:p47 ratio approx. 2:1) was “VCF1 now becomes detectable in p47 IPs” and the “competition with p47 for p97” value ([2]; VCF1:p47 ratio approx. 8:1) was “more efficiently outcompetes p47 binding to p97”. For the same substance, the “displacement of p97-bound cofactors” value ([2]; high/increasing concentrations) was “displaced p47 and UFD1-NPL4 from p97 in vitro”, the “simultaneous binding with UFD1-NPL4, p47 or FAF1 to p97” value ([2]; moderate concentrations of VCF1) was “clearly permissive for the simultaneous binding” and the “p97-independent enrichment in UFD1 pulldowns” value ([2]; purified Strep-HA-VCF1, no p97) was “modest p97-independent enrichment”. The “direct interaction with UFD1-NPL4” value ([2]; purified proteins, no p97) was “did not directly interact with UFD1-NPL4”, the “effect on p97-UFD1-NPL4-mediated unfolding of mEos3.2” value [3] was “did not accelerate the already highly efficient p97-UFD1-NPL4-mediated unfolding of poly-ubiquitylated mEos3.2 in vitro” and the “effect on p97-UFD1-NPL4 binding to ubiquitylated proteins” value [4] was “prominent ability of VCF1 to enhance p97-UFD1-NPL4 binding to ubiquitylated proteins; also recorded: fully dependent on the ubiquitin-binding ability of the UFD1-NPL4 complex”. For the same substance, the “VCF1 molecules bound per p97 hexamer” value (p97 hexamer (His6-p97)) was 2-3 molecules per p97 hexamer.
